Assay results: ChEMBL document CHEMBL1938264, “Novel 3,4-isoxazolediamides as potent inhibitors of chaperone heat shock protein 90” (J Med Chem, 2011)

Columns and labels:
[1] = target: Heat shock protein HSP 90-beta (Homo sapiens, UniProt P08238); experiment: Binding affinity to Hsp90 after 4 hrs by fluorescence polarization assay
NCI-H460 = experiment: Cytotoxicity against human NCI-H460 after 72 hrs by sulforhodamine B assay; format: functional, cell-based; details: NCI-H460, 72 h

Sequence of Heat shock protein HSP 90-beta (P08238 whole entry): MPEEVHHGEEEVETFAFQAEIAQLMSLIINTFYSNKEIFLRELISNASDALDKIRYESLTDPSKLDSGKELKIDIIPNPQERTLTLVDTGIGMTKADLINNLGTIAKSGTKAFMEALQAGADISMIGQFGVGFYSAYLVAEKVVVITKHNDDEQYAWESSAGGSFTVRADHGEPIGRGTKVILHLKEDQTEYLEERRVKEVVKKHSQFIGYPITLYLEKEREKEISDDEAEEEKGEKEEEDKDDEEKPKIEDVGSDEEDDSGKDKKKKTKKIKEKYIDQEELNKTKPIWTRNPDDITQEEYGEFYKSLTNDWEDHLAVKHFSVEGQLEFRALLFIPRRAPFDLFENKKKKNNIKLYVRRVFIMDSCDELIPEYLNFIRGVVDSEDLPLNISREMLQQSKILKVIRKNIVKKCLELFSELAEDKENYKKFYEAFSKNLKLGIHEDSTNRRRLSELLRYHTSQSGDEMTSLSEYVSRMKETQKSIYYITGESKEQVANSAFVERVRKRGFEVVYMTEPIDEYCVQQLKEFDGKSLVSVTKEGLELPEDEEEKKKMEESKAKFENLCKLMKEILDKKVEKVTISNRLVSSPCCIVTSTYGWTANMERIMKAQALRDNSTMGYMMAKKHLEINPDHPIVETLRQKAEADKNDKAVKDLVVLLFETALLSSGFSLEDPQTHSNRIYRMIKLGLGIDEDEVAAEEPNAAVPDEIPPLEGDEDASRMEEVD

C=CC(=O)Nc1c(C(=O)NCC)noc1-c1cc(Cl)c(O)cc1O
IC50 [1]: 167 nM
IC50 (NCI-H460): > 1000 nM

CCNC(=O)c1noc(-c2cc(C(C)C)c(O)cc2O)c1NC(=O)[C@H]1CC[C@H](CNS(=O)(=O)c2ccccc2)CC1
IC50 [1]: < 5 nM
IC50 (NCI-H460): > 1000 nM

CCNC(=O)c1noc(-c2cc(C(C)C)c(O)cc2O)c1NC(=O)c1ccc(N2CCNCC2)cc1
IC50 [1]: 32 nM
IC50 (NCI-H460): > 1000 nM

COc1ccc(C(=O)Nc2c(C(=O)NCC(F)(F)F)noc2-c2cc(Cl)c(O)cc2O)cc1
IC50 [1]: 160 nM
IC50 (NCI-H460): > 1000 nM

CCNC(=O)c1noc(-c2cc(Cl)c(O)cc2O)c1NC(=O)c1ccc(OC)c(OC)c1
IC50 [1]: 163 nM
IC50 (NCI-H460): > 1000 nM

CCNC(=O)c1noc(-c2cc(C(C)C)c(O)cc2O)c1NC(=O)c1sc(C)nc1C
IC50 [1]: 10 nM
IC50 (NCI-H460): 560 nM

CCNC(=O)c1noc(-c2cc(C(C)C)c(O)cc2O)c1NC(=O)c1nc(C)c(-c2ccc(F)cc2)s1
IC50 [1]: 40 nM
IC50 (NCI-H460): > 1000 nM

CCNC(=O)c1noc(-c2cc(C(C)C)c(O)cc2O)c1NC(=O)C1CCN(C)CC1
IC50 [1]: 24 nM
IC50 (NCI-H460): > 1000 nM

CCNC(=O)c1noc(-c2cc(C(C)C)c(O)cc2O)c1NC(=O)c1ccc(N(C)C)cc1
IC50 [1]: 34 nM
IC50 (NCI-H460): 240 nM

CCNC(=O)c1noc(-c2cc(Cl)c(O)cc2O)c1NC(=O)c1ccc(Br)cc1
IC50 [1]: 153 nM
IC50 (NCI-H460): > 1000 nM

CCNC(=O)c1noc(-c2cc(C(C)C)c(O)cc2O)c1NC(=O)c1ccc(C)o1
IC50 [1]: < 5 nM
IC50 (NCI-H460): 16 nM

CCNC(=O)c1noc(-c2cc(Cl)c(O)cc2O)c1NC(=O)c1ccc(OC)cc1
IC50 [1]: 184 nM
IC50 (NCI-H460): > 1000 nM

CCNC(=O)c1noc(-c2cc(Cl)c(O)cc2O)c1NC(=O)C(C)(C)C
IC50 [1]: 85 nM
IC50 (NCI-H460): 310 nM

CCNC(=O)c1noc(-c2cc(C(C)C)c(O)cc2O)c1NC(=O)CCN1CCN(C)CC1
IC50 [1]: 120 nM
IC50 (NCI-H460): > 1000 nM

CCNC(=O)c1noc(-c2cc(C(C)C)c(O)cc2O)c1NC(=O)[C@@H]1CC[C@H](CN2CCOCC2)C1 (relative stereo)
IC50 [1]: 12 nM
IC50 (NCI-H460): 170 nM

CCNC(=O)c1noc(-c2cc(C(C)C)c(O)cc2O)c1NC(=O)[C@H]1CC[C@H](N)CC1
IC50 [1]: 28 nM
IC50 (NCI-H460): > 1000 nM

CCNC(=O)c1noc(-c2cc(C(C)C)c(O)cc2O)c1NC(=O)[C@H]1CC[C@@H](N2CCOCC2)CC1
IC50 [1]: 7.4 nM
IC50 (NCI-H460): 610 nM

CCNC(=O)c1noc(-c2cc(C(C)C)c(O)cc2O)c1NC(=O)[C@@H]1CC[C@H](C(=O)OC)C1
IC50 [1]: < 5 nM
IC50 (NCI-H460): 22 nM

CCNC(=O)c1noc(-c2cc(C(C)C)c(O)cc2O)c1NC(=O)c1ccc2ccsc2c1
IC50 [1]: 20 nM
IC50 (NCI-H460): 180 nM

CCNC(=O)c1noc(-c2cc(C(C)C)c(O)cc2O)c1NC(=O)c1oc2ccccc2c1C
IC50 [1]: 260 nM
IC50 (NCI-H460): > 1000 nM

CCNC(=O)c1noc(-c2cc(C(C)C)c(O)cc2O)c1NC(=O)[C@H]1CC[C@H](CNC)CC1
IC50 [1]: 8.6 nM
IC50 (NCI-H460): > 1000 nM

CCNC(=O)c1noc(-c2cc(C(C)C)c(O)cc2O)c1NC(=O)[C@H]1CC[C@@H](CO)CC1
IC50 [1]: 15 nM
IC50 (NCI-H460): 870 nM

CCNC(=O)c1noc(-c2cc(Cl)c(O)cc2O)c1NCc1sccc1C
IC50 [1]: 230 nM
IC50 (NCI-H460): > 1000 nM

CCNC(=O)c1noc(-c2cc(C(C)C)c(O)cc2O)c1NC(=O)[C@H]1CC[C@H](OC(=O)CN)CC1
IC50 [1]: < 5 nM
IC50 (NCI-H460): > 1000 nM

CCNC(=O)c1noc(-c2cc(C(C)C)c(O)cc2O)c1NC(=O)[C@H]1CC[C@H](CN2CCOCC2)CC1
IC50 [1]: 8.8 nM
IC50 (NCI-H460): 130 nM

CCNC(=O)c1noc(-c2cc(Cl)c(O)cc2O)c1NC1CCN(C)CC1
IC50 [1]: 1600 nM
IC50 (NCI-H460): > 1000 nM

CCNC(=O)c1noc(-c2cc(C(C)C)c(O)cc2O)c1NC(=O)[C@H]1CC[C@@H](C(N)=O)CC1
IC50 [1]: < 5 nM
IC50 (NCI-H460): 990 nM

CCNC(=O)c1noc(-c2cc(C(C)C)c(O)cc2O)c1NC(=O)[C@H]1CC[C@@H](O)CC1
IC50 [1]: < 5 nM
IC50 (NCI-H460): 500 nM

CCNC(=O)c1noc(-c2cc(C(C)C)c(O)cc2O)c1NC(C)=O
IC50 [1]: 55 nM
IC50 (NCI-H460): 81 nM

CCNC(=O)c1noc(-c2cc(C(C)C)c(O)cc2O)c1NC(=O)C1CCC(C(C)(C)C)CC1 (stereo not given)
IC50 [1]: 30 nM
IC50 (NCI-H460): 200 nM

CCNC(=O)c1noc(-c2cc(C(C)C)c(O)cc2O)c1NC(=O)c1cc(C(C)=O)on1
IC50 [1]: 19 nM
IC50 (NCI-H460): 82 nM

CCNC(=O)c1noc(-c2cc(C(C)C)c(O)cc2O)c1NC(=O)c1ccc(OC)cc1
IC50 [1]: 26 nM
IC50 (NCI-H460): 17 nM

CCNC(=O)c1noc(-c2cc(C(C)C)c(O)cc2O)c1NC(=O)c1cc2ccccc2n1C
IC50 [1]: 62 nM
IC50 (NCI-H460): 360 nM

CCNC(=O)c1noc(-c2cc(C(C)C)c(O)cc2O)c1NC(=O)[C@H]1CC[C@H](CNS(=O)(=O)c2ccc(F)cc2)CC1
IC50 [1]: 5.4 nM
IC50 (NCI-H460): 640 nM

CCNC(=O)c1noc(-c2cc(C(C)C)c(O)cc2O)c1NC(=O)c1ccc(N2CCCC2)cc1
IC50 [1]: 22 nM
IC50 (NCI-H460): 810 nM
